Species on record: Rattus norvegicus
Experiment: DrugMatrix - Regimen: Daily Repeat
Assay type: toxicity, organism-based, Sprague-Dawley
Set-up: regimen Daily Repeat, gender Male, age 6-8 weeks
Details: in vivo, po, route oral GAVAGE, vehicle .5 % CMC; for ABSOLUTE BASOPHIL / ABSOLUTE EOSINOPHIL / ABSOLUTE LYMPHOCYTE / ABSOLUTE MONOCYTE / ABSOLUTE SEGMENTED NEUTROPHIL / BASOPHIL / EOSINOPHIL / ERYTHROCYTE COUNT / HEMATOCRIT / HEMOGLOBIN / LEUKOCYTE COUNT / LYMPHOCYTE / MEAN CORPUSCULAR HEMOGLOBIN / MEAN CORPUSCULAR HEMOGLOBIN CONCENTRATION / MEAN CORPUSCULAR VOLUME / MONOCYTE / NEUTROPHIL / NUCLEATED RED BLOOD CELLS / PLATELET COUNT: tissue Blood; for ALANINE AMINOTRANSFERASE / ALBUMIN / ALKALINE PHOSPHATASE / ASPARTATE AMINOTRANSFERASE / BLOOD UREA NITROGEN / CARBON DIOXIDE / CHLORIDE / CHOLESTEROL / CREATINE PHOSPHOKINASE / CREATININE / GLUCOSE / LACTATE DEHYDROGENASE / LIPASE / PHOSPHORUS / POTASSIUM / SODIUM / TOTAL BILIRUBIN / TOTAL PROTEIN / URIC ACID: tissue Plasma
[1] = 10 mg/kg, 72 h, dose level Low, time 3 day
[2] = 10 mg/kg, 120 h, dose level Low, time 5 day
[3] = 1750 mg/kg, 72 h, dose level High, time 3 day
[4] = 1750 mg/kg, 120 h, dose level High, time 5 day

With `CCOC(=O)[C@H](CCc1ccccc1)N[C@H]1CCc2ccccc2N(CC(=O)O)C1=O` [BENAZEPRIL] the “ABSOLUTE BASOPHIL” value [1] was 0 CELLS/uL, the “ABSOLUTE EOSINOPHIL” value [1] was 0 CELLS/uL and the “ABSOLUTE LYMPHOCYTE” value [1] was 8474.33 CELLS/uL. For the same compound, the “ABSOLUTE MONOCYTE” value [1] was 40.67 CELLS/uL, the “ABSOLUTE SEGMENTED NEUTROPHIL” value [1] was 418.33 CELLS/uL and the BASOPHIL [1] was 0%. For the same compound, the EOSINOPHIL [1] was 0%, the “ERYTHROCYTE COUNT” value [1] was 5.44 x10E6/uL and the HEMATOCRIT [1] was 35.27%. The HEMOGLOBIN [1] was 14.3 G/DL, the “LEUKOCYTE COUNT” value [1] was 8.93 x10E3/uL and the LYMPHOCYTE [1] was 94.33%. For the same compound, the “MEAN CORPUSCULAR HEMOGLOBIN” value [1] was 26.27 pg, the “MEAN CORPUSCULAR HEMOGLOBIN CONCENTRATION” value [1] was 40.53 G/DL and the “MEAN CORPUSCULAR VOLUME” value [1] was 64.8 fL. The MONOCYTE [1] was 0.67%, the NEUTROPHIL [1] was 5% and the “NUCLEATED RED BLOOD CELLS” value [1] was 0 /100WBC. For the same compound, the “PLATELET COUNT” value [1] was 1050 x10E3/uL, the “ALANINE AMINOTRANSFERASE” value [1] was 47.33 u/L and the ALBUMIN [1] was 4.6 G/DL. For the same compound, the “ALKALINE PHOSPHATASE” value [1] was 428.33 u/L, the “ASPARTATE AMINOTRANSFERASE” value [1] was 84.67 u/L and the “BLOOD UREA NITROGEN” value [1] was 18 mg/dL. For the same compound, the “CARBON DIOXIDE” value [1] was 34.33 mmol/L, the CHLORIDE [1] was 99 MEQ/L and the CHOLESTEROL [1] was 78.67 mg/dL. For the same compound, the “CREATINE PHOSPHOKINASE” value [1] was 322 u/L, the CREATININE [1] was 0.22 mg/dL and the GLUCOSE [1] was 135.33 mg/dL. The “LACTATE DEHYDROGENASE” value [1] was 124.67 u/L, the LIPASE [1] was 10 u/L and the PHOSPHORUS [1] was 10.63 mg/dL. The POTASSIUM [1] was 6.53 MEQ/L, the SODIUM [1] was 145.23 MEQ/L and the “TOTAL BILIRUBIN” value [1] was 0.2 mg/dL. The “TOTAL PROTEIN” value [1] was 6.57 G/DL, the “URIC ACID” value [1] was 0.83 mg/dL and the “ABSOLUTE BASOPHIL” value [2] was 0 CELLS/uL. For the same compound, the “ABSOLUTE EOSINOPHIL” value [2] was 90 CELLS/uL, the “ABSOLUTE LYMPHOCYTE” value [2] was 12851.33 CELLS/uL and the “ABSOLUTE MONOCYTE” value [2] was 265.67 CELLS/uL. The “ABSOLUTE SEGMENTED NEUTROPHIL” value [2] was 1459.67 CELLS/uL, the BASOPHIL [2] was 0% and the EOSINOPHIL [2] was 0.67%. For the same compound, the “ERYTHROCYTE COUNT” value [2] was 5.31 x10E6/uL, the HEMATOCRIT [2] was 33.43% and the HEMOGLOBIN [2] was 13.47 G/DL. The “LEUKOCYTE COUNT” value [2] was 14.67 x10E3/uL, the LYMPHOCYTE [2] was 88% and the “MEAN CORPUSCULAR HEMOGLOBIN” value [2] was 25.33 pg. For the same compound, the “MEAN CORPUSCULAR HEMOGLOBIN CONCENTRATION” value [2] was 40.27 G/DL, the “MEAN CORPUSCULAR VOLUME” value [2] was 62.9 fL and the MONOCYTE [2] was 2%. For the same compound, the NEUTROPHIL [2] was 9.33%, the “NUCLEATED RED BLOOD CELLS” value [2] was 0 /100WBC and the “PLATELET COUNT” value [2] was 1304.67 x10E3/uL. For the same compound, the “ALANINE AMINOTRANSFERASE” value [2] was 52.67 u/L, the ALBUMIN [2] was 4.2 G/DL and the “ALKALINE PHOSPHATASE” value [2] was 304.33 u/L. The “ASPARTATE AMINOTRANSFERASE” value [2] was 76 u/L, the “BLOOD UREA NITROGEN” value [2] was 18 mg/dL and the “CARBON DIOXIDE” value [2] was 32 mmol/L. For the same compound, the CHLORIDE [2] was 102 MEQ/L, the CHOLESTEROL [2] was 73.67 mg/dL and the “CREATINE PHOSPHOKINASE” value [2] was 234.67 u/L. The CREATININE [2] was 0.15 mg/dL, the GLUCOSE [2] was 160.67 mg/dL and the “LACTATE DEHYDROGENASE” value [2] was 106.67 u/L. The LIPASE [2] was 9 u/L, the PHOSPHORUS [2] was 13.27 mg/dL and the POTASSIUM [2] was 7.06 MEQ/L. The SODIUM [2] was 144.9 MEQ/L, the “TOTAL BILIRUBIN” value [2] was 0.2 mg/dL and the “TOTAL PROTEIN” value [2] was 6.27 G/DL. For the same compound, the “URIC ACID” value [2] was 1.57 mg/dL, the “ABSOLUTE BASOPHIL” value [3] was 0 CELLS/uL and the “ABSOLUTE EOSINOPHIL” value [3] was 139.33 CELLS/uL. The “ABSOLUTE LYMPHOCYTE” value [3] was 16004 CELLS/uL, the “ABSOLUTE MONOCYTE” value [3] was 0 CELLS/uL and the “ABSOLUTE SEGMENTED NEUTROPHIL” value [3] was 1823.33 CELLS/uL. For the same compound, the BASOPHIL [3] was 0%, the EOSINOPHIL [3] was 0.67% and the “ERYTHROCYTE COUNT” value [3] was 5.02 x10E6/uL. The HEMATOCRIT [3] was 32.27%, the HEMOGLOBIN [3] was 13.23 G/DL and the “LEUKOCYTE COUNT” value [3] was 17.97 x10E3/uL. For the same compound, the LYMPHOCYTE [3] was 89.33%, the “MEAN CORPUSCULAR HEMOGLOBIN” value [3] was 26.43 pg and the “MEAN CORPUSCULAR HEMOGLOBIN CONCENTRATION” value [3] was 41.03 G/DL. The “MEAN CORPUSCULAR VOLUME” value [3] was 64.37 fL, the MONOCYTE [3] was 0% and the NEUTROPHIL [3] was 10%. The “NUCLEATED RED BLOOD CELLS” value [3] was 0 /100WBC, the “PLATELET COUNT” value [3] was 1175.67 x10E3/uL and the “ALANINE AMINOTRANSFERASE” value [3] was 47.67 u/L. The ALBUMIN [3] was 4.13 G/DL, the “ALKALINE PHOSPHATASE” value [3] was 388 u/L and the “ASPARTATE AMINOTRANSFERASE” value [3] was 83.33 u/L. The “BLOOD UREA NITROGEN” value [3] was 23.67 mg/dL, the “CARBON DIOXIDE” value [3] was 28.33 mmol/L and the CHLORIDE [3] was 101 MEQ/L. For the same compound, the CHOLESTEROL [3] was 63.67 mg/dL, the “CREATINE PHOSPHOKINASE” value [3] was 244.67 u/L and the CREATININE [3] was 0.24 mg/dL. For the same compound, the GLUCOSE [3] was 152.33 mg/dL, the “LACTATE DEHYDROGENASE” value [3] was 297.33 u/L and the LIPASE [3] was 9.33 u/L. The PHOSPHORUS [3] was 11.27 mg/dL, the POTASSIUM [3] was 7.42 MEQ/L and the SODIUM [3] was 140.93 MEQ/L. The “TOTAL BILIRUBIN” value [3] was 0.23 mg/dL, the “TOTAL PROTEIN” value [3] was 5.73 G/DL and the “URIC ACID” value [3] was 1.73 mg/dL. For the same compound, the “ABSOLUTE BASOPHIL” value [4] was 0 CELLS/uL, the “ABSOLUTE EOSINOPHIL” value [4] was 0 CELLS/uL and the “ABSOLUTE LYMPHOCYTE” value [4] was 16017 CELLS/uL. The “ABSOLUTE MONOCYTE” value [4] was 660 CELLS/uL, the “ABSOLUTE SEGMENTED NEUTROPHIL” value [4] was 1423 CELLS/uL and the BASOPHIL [4] was 0%. For the same compound, the EOSINOPHIL [4] was 0%, the “ERYTHROCYTE COUNT” value [4] was 5.54 x10E6/uL and the HEMATOCRIT [4] was 33.43%. For the same compound, the HEMOGLOBIN [4] was 13.43 G/DL, the “LEUKOCYTE COUNT” value [4] was 18.1 x10E3/uL and the LYMPHOCYTE [4] was 89.33%. The “MEAN CORPUSCULAR HEMOGLOBIN” value [4] was 24.3 pg, the “MEAN CORPUSCULAR HEMOGLOBIN CONCENTRATION” value [4] was 40.2 G/DL and the “MEAN CORPUSCULAR VOLUME” value [4] was 60.5 fL. For the same compound, the MONOCYTE [4] was 3.67%, the NEUTROPHIL [4] was 7% and the “NUCLEATED RED BLOOD CELLS” value [4] was 0.33 /100WBC. For the same compound, the “PLATELET COUNT” value [4] was 1330 x10E3/uL, the “ALANINE AMINOTRANSFERASE” value [4] was 49.67 u/L and the ALBUMIN [4] was 4.03 G/DL. The “ALKALINE PHOSPHATASE” value [4] was 380.33 u/L, the “ASPARTATE AMINOTRANSFERASE” value [4] was 85.33 u/L and the “BLOOD UREA NITROGEN” value [4] was 44 mg/dL. The “CARBON DIOXIDE” value [4] was 30 mmol/L, the CHLORIDE [4] was 104.33 MEQ/L and the CHOLESTEROL [4] was 74.67 mg/dL. The “CREATINE PHOSPHOKINASE” value [4] was 585 u/L, the CREATININE [4] was 0.27 mg/dL and the GLUCOSE [4] was 150.67 mg/dL. The “LACTATE DEHYDROGENASE” value [4] was 227 u/L, the LIPASE [4] was 9.33 u/L and the PHOSPHORUS [4] was 10.53 mg/dL. For the same compound, the POTASSIUM [4] was 6.39 MEQ/L, the SODIUM [4] was 143.17 MEQ/L and the “TOTAL BILIRUBIN” value [4] was 0.2 mg/dL. The “TOTAL PROTEIN” value [4] was 6 G/DL and the “URIC ACID” value [4] was 1.53 mg/dL.
